Assay results as given in US10272056B2, “Treatment for mitochondrial diseases” (The George Washington University a Congressionally …, priority 2015, dated 2019).

Key:
PC12-ND6 cells [1] = experiment: Mitochondrial mass (mito-GFP live cell microscopy, MTG/MTR flow cytometry); type: cell-based
Protocol: PC12-ND6 cells were transfected with the mito-GFP vector prior to treatment with NaBt (5 mM) for the indicated time points. Mitochondria were visualized by live cell microscopy; scale bar=5 μm.
FIG. 7A-7F show images from microscopy and graphs showing NaBt increases mitochondrial mass. (A) Live cell confocal microscopy of E17.5 hippocampal neurons; high magnification in inset; scale bar=5 (B) Quantitative analysis of the mitochondrial biomass in E17.5 neurons using an anti-CoxVα antibody; *p<0.001. (C) Live cell confocal microscopy of PC12-ND6 cells; high magnification in inset; scale bar=5 (D) Flow cytometric analysis of mitochondrial mass; *p<0.001. (E) Confocal microscopy of E17.5 brains from E12.5 pregnant dams treated with PBS (sham) or NaBt; scale bar=20 (F) Quantitative analysis of mitochondrial mass; *p<0.001.
Experimental approaches. Five distinct molecular tools were used to investigate mitochondrial biogenesis: 1) the mitochondrial-specific dyes, MitoTracker® Green (MTG) and MitoTracker® Red (MTR); 2) the mito-GFP or mito-dsRed vector to fluorescently label mitochondria; 3) antibodies against mtDNA, COXVα, or SOD2; 4) the fluorescent PicoGreen® dye labeling mtDNA; and 5) quantitative PCR to determine mtDNA copy number.
NaBt increases the mitochondrial biomass of neuronal cells in vitro and in vivo. To investigate the effect of NaBt on mitochondrial mass, PC12-ND6 cells were transfected with the mito-GFP vector before performing a time course analysis of NaBt (5 mM) treatment.
The effect of NaBt was investigated in embryonic neuronal progenitor cells, E17.5 hippocampal neurons, which were transfected with the mito-GFP vector and then exposed to various concentrations of NaBt. […] Therefore, all subsequent treatment of E17.5 hippocampal neurons with NaBt was performed in the presence of 2 mM. […] Flow cytometric analysis using MTG- or MTR-labeled cells corroborated the NaBt-mediated increase in mitochondrial mass (FIG. 7D).

PC12-ND6 cells [2] = experiment: Mitochondrial mass under chloramphenicol (mito-GFP live-cell confocal microscopy); type: cell-based; conditions: NaBt prior to chloramphenicol, up to highest concentration
From the text: FIG. 14A-14E are images from microscopy showing that pre-treatment of PC12-ND6 cells with NaBt prevents chloramphenicol-mediated decrease of mitochondrial mass. (A) Graph of PC12-ND6 cell death upon exposure to different concentrations of chloramphenicol (Cm). Percent of cell death±SEM (n=250 cells). (B) Quantitative immunoblot analysis of mitochondrial-encoded MT-CO1 protein (green) and nuclear-encoded SDH-A protein (red) in Cm-treated PC12-ND6 cells. (C) Graph of MT-CO1/SDH-A ratio normalized to untreated PC12-ND6 cells. Mean±SEM (n=3; compared to untreated cells *p=0.0052, **p=0.0048, and ***p=0.0034). (D) Confocal micrographs of untreated and Cm-treated PC12-ND6 cells transfected with the vector mito-GFP. Scale bar represents 5 μm. (E) Confocal micrographs of NaBt pre-treated PC12-ND6 cells transfected with the vector mito-GFP and exposed to Cm. Scale bar represents 5 μm.
The efficacy of chloramphenicol treatment was determined by simultaneously examining the expression levels of the nuclear-encoded succinate dehydrogenase (SDH-A) subunit of Complex II and the mitochondrial-encoded subunit I of Complex IV (MT-COI) using a quantitative immunoblot approach. […] The effect of chloramphenicol on mitochondrial mass by live-cell confocal microscopy using PC12-ND6 cells transfected with the vector mito-GFP was confirmed.

PC12-ND6 cells [3] = experiment: NGF (100 ng/ml)-mediated neurite outgrowth after chloramphenicol; type: cell-based
From the text: FIG. 15A-15C are images from microscopy and a graph showing that Pre-treatment of PC12-ND6 cells negates the inhibitory effect of chloramphenicol on NGF-mediated neuronal differentiation. (A) Confocal micrographs of untreated and Cm-treated PC12-ND6 cells transfected with the vector mito-GFP and exposed to NGF. Scale bar represents 20 μm. (B) Confocal micrographs of NaBt pre-treated PC12-ND6 cells transfected with the vector mito-GFP and exposed to chloramphenicol prior to NGF treatment. Scale bar represents 20 μm. (C) Graph of average total neurite length. Mean±SEM (n=50 cells; compared to untreated PC12-ND6 cells *p=0.0001; compared to non-NaBt-treated PC12-ND6 cells with corresponding Cm concentration **p=0.0001).
Based on the results that NaBt endows PC12-ND6 cells with increased mitochondrial mass through biogenesis, resulting in accelerated neuronal differentiation, it was examined whether exposure to NaBt for three days could confer protection to chloramphenicol-mediated inhibition of neuronal differentiation upon NGF signaling.

neuronal cells = experiment: Live cell Mg2+-based ATP assay; conditions: NaBt-treated cells
Protocol: FIG. 9A-9C are graphs and images from microscopy showing that NaBt enhances mitochondrial bioenergetics. (A) Flow cytometric analysis of Δψm; *p<0.001. (B) ATP levels in live cells using a Mg^2+-based assay; *p<0.001. (C) Electron microscopy of mitochondria in control and NaBt-treated cells; scale bar=200 nm.
NaBt increases mitochondrial membrane potential (Δψm) and ATP levels. The MTR-based data raised the question: could NaBt also enhance mitochondrial bioenergetics? Δψm was assessed by live cell confocal microscopy and flow cytometry using the TMRM dye, which accumulates in the mitochondrial matrix in a Δψm-dependent fashion. A 1.5-fold increase in Δψm in NaBt-treated cells was observed (FIG. 9A). To test whether enhanced Δψm led to increased ATP output, ATP levels were monitored using the live cell Mg^2+-based ATP assay, which is compatible with the TMRM dye, allowing simultaneous recordings. A 1.6-fold increase in ATP levels in NaBt-treated cells was observed (FIG. 9B), in line with the MTR- and TMRM-based findings and the elongated mitochondrial morphology.

[4] = flow cytometry, NaBt-treated vs control

SMILES: CCCC(=O)[O-].[Na+] [NaBt, sodium butyrate]
- time of maximal increase of the mitochondrial biomass (PC12-ND6 cells [1]; NaBt 5 mM, mito-GFP time course): after three days
- increase in fluorescence intensity, MTR staining (PC12-ND6 cells [1]; [4]): 3.5 fold
- increase in mitochondrial mass, MTG staining (PC12-ND6 cells [1]; [4]): two-fold
- mitochondrial biomass with NaBt pre-treatment (PC12-ND6 cells [2]): sustain their mitochondrial biomass
- mitochondrial density in processes (PC12-ND6 cells [3]; NaBt pre-treated, 60 μM chloramphenicol): retained a high mitochondrial density
- total neurite length with NaBt pre-treatment (PC12-ND6 cells [3]; NaBt three days, highest concentration of chloramphenicol, NGF): remained unaffected
- increase in ATP levels (neuronal cells): 1.6 fold
